Experimental data: patent publication US10519114B2, “Peptidomimetics and methods of using the same” (The Regents of the University of Michigan, priority 2016, dated 2019)

Tests used:
[1] = biological target: T1, rat μ (C6-MOR) opioid receptor (Rattus norvegicus, UniProt P33535); test: Stimulation of [35S]GTPγS binding, MOR; assay type: biochemical; details: for EC50 / EC50 (nm) MOR: [35S]GTPγS binding, C6-MOR membranes, mean ± standard error; for Emax / % stimulation MOR: [35S]GTPγS maximal stimulation compared with 10 μM standard DAMGO
T1 construct: expressed in transfected cells
Method: (§1) In Vitro Pharmacology-Cell Lines and Membrane Preparations. All tissue culture reagents were purchased from Gibco Life Sciences (Grand Island, N.Y., U.S.). C6-rat glioma cells stably transfected with a rat μ (C6-MOR) or rat δ (C6-DOR) opioid receptor20 and Chinese hamster ovary (CHO) cells stably expressing a human K (CHO-KOR) opioid receptor21 were used for all in vitro assays. Cells were grown to confluence at 37° C. in 5% CO2 in Dulbecco's modified Eagle medium containing 10% fetal bovine serum and 5% penicillin/streptomycin. Membranes were prepared by washing confluent cells three times with ice cold phosphate buffered saline (0.9% NaCl, 0.61 mM Na2HPO4, 0.38 mM KH2PO4, pH 7.4). Cells were detached from the plates by incubation in warm harvesting buffer (20 mM HEPES, 150 mM NaCl, 0.68 mM EDTA, pH 7.4) and pelleted by centrifugation at 200 g for 3 min. The cell pellet was suspended in ice-cold 50 mM Tris-HCl buffer, pH 7.4, and homogenized with a Tissue Tearor (Biospec Products, Inc., Bartlesville, Okla., U.S.) for 20 s at setting 4. The homogenate was centrifuged at 20 000 g for 20 min at 4° C., and the pellet was rehomogenized in 50 mM Tris-HCl with a Tissue Tearor for 10 s at setting 2, followed by recentrifugation. The final pellet was resuspended in 50 mM Tris-HCl and frozen in aliquots at […]. Protein concentration was determined via Bradford assay using bovine serum albumin as the standard.
(§2) Stimulation of [^35S]GTPyS Binding. Agonist stimulation of [35S]guanosine 5′-O-[γ-thio]triphosphate ([^35S]GTPγS, 1250 Ci, 46.2 TBq/mmol) binding was measured as described previously Briefly, membranes (10-20 μg of protein/tube) were incubated 1 h at room temperature in GTPyS buffer (50 mM Tris-HCl, 100 mM NaCl, 5 mM MgCl2, pH 7.4) containing 0.1 nM [^35S]GTPγS, 30 μM guanosine diphosphate (GDP), and varying concentrations of test peptides. Peptide stimulation of [^35S]GTPyS was compared with 10 μM standard compounds [D-Ala^2,N-MePhe^4,Gly-ol]encephalin (DAMGO) at MOR, D-Pen^2,5-enkephalin (DPDPE) at DOR, or […] at KOR. The reaction was terminated by rapidly filtering through GF/C filters and washing 10 times with GTPyS buffer, and retained radioactivity was measured as described above. The results presented are the mean±standard error from at least three separate assays performed in duplicate; maximal stimulation was determined using nonlinear regression analysis with GraphPad Prism (GraphPad Software Inc., La Jolla, Calif.).

[2] = biological target: T2, human κ (CHO-KOR) opioid receptor (Homo sapiens, UniProt P41145); test: Radioligand binding assay, [3H]diprenorphine displacement, KOR; details: displacement of 0.2 nM [3H]diprenorphine, CHO-KOR membranes; mean ± standard error
T2 construct: expressed in transfected cells
Method: as §1
(§3) Radioligand Binding Assays. Radioactive compounds were purchased from Perkin-Elmer (Waltham, Mass., U.S.). Opioid ligand binding assays were performed using competitive displacement of 0.2 nM [3H]diprenorphine (250 μCi, 1.85 TBq/mmol) by the test compound from membrane preparations containing opioid receptors. The assay mixture, containing membrane suspension (20 μg protein/tube) in 50 mM Tris-HCl buffer (pH 7.4), [3H]diprenorphine, and various concentrations of test peptide, was incubated at room temperature for 1 h to allow binding to reach equilibrium. The samples were rapidly filtered through Whatman GF/C filters using a Brandel harvester (Brandel, Gaithersburg, Md., U.S.) and washed three times with 50 mM Tris-HCl buffer. The radioactivity retained on dried filters was determined by liquid scintillation counting after saturation with EcoLume liquid scintillation cocktail in a Wallac 1450 MicroBeta (Perkin-Elmer, Waltham, Mass., U.S.). Nonspecific binding was determined using 10 μM naloxone. Inhibitory constant (Ki) values were calculated using nonlinear regression analysis to fit a logistic equation to the competition data using GraphPad Prism, version 5.01, for Windows (GraphPad Software Inc., La Jolla, Calif.). The results presented are the mean±standard error from at least three separate assays performed in duplicate.

[3] = biological target: T1, rat μ (C6-MOR) opioid receptor; test: Radioligand binding assay, [3H]diprenorphine displacement, MOR; details: displacement of 0.2 nM [3H]diprenorphine, C6-MOR membranes; mean ± standard error
Method: as §1, §3

[4] = biological target: T3, rat δ (C6-DOR) opioid receptor (Rattus norvegicus, UniProt P33533); test: Radioligand binding assay, [3H]diprenorphine displacement, DOR; details: displacement of 0.2 nM [3H]diprenorphine, C6-DOR membranes; mean ± standard error
T3 construct: expressed in transfected cells
Method: as §1, §3

[5] = biological target: T3, rat δ (C6-DOR) opioid receptor; test: Stimulation of [35S]GTPγS binding, DOR; assay type: biochemical; details: for EC50 / EC50 (nm) DOR: [35S]GTPγS binding, C6-DOR membranes, mean ± standard error; for Emax / % stimulation DOR: [35S]GTPγS maximal stimulation compared with 10 μM standard DPDPE
Method: as §1, §2

[6] = biological target: T2, human κ (CHO-KOR) opioid receptor; test: Stimulation of [35S]GTPγS binding, KOR; assay type: biochemical
Method: as §1, §2

T2 sequence (P41145 whole entry): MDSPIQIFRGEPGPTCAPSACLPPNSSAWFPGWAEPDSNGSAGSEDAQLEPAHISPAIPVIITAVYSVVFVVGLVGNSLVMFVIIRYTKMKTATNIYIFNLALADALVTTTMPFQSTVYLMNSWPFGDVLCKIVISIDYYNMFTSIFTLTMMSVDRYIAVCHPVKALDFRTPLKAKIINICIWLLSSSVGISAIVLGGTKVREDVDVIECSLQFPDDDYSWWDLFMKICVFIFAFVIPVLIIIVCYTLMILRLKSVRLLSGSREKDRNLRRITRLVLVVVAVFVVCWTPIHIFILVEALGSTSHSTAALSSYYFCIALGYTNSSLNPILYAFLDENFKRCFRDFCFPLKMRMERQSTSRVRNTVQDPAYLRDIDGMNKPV
T3 sequence (P33533 whole entry): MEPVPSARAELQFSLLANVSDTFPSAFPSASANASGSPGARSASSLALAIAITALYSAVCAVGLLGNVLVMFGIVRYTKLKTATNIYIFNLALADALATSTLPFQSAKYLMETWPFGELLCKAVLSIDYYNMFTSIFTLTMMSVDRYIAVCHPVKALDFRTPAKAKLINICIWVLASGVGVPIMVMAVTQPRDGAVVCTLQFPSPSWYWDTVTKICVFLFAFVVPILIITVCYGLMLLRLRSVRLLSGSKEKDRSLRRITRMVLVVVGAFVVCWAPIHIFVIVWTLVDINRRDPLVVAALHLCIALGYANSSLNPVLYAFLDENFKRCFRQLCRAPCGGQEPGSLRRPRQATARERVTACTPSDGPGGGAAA
T1 sequence (P33535 whole entry): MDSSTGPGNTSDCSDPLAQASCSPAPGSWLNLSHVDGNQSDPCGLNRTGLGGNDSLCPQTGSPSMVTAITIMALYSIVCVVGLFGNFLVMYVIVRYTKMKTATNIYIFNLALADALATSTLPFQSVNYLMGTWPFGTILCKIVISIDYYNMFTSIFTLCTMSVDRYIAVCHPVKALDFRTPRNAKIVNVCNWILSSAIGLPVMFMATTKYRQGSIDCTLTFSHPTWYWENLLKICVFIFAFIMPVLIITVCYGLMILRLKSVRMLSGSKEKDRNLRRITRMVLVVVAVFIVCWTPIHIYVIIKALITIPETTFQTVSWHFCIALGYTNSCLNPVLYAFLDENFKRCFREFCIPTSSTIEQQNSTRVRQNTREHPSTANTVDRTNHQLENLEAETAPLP

SMILES	EC50 [1]	Emax [1]	Ki [2]	Ki [3]	Ki [4]	EC50 [5]	Emax [5]	EC50 (nm) DOR [5]	% stimulation DOR [5]	EC50 (nm) MOR [1]	% stimulation MOR [1]	EC50 ([6]; [35S]GTPγS binding, CHO-KOR membranes, mean ± standard error)	Emax ([6]; [35S]GTPγS maximal stimulation compared with 10 μM standard U-69,593)
Cc1cc(O)cc(C)c1C[C@H](N)C(=O)N[C@H]1CCNc2ccc(Oc3ccccc3)cc21 [Compound 1018]	1300 nM	16.6 ± 16.6%	494 nM	41.3 ± 6.34 nM	277 ± 47.4 nM	2000 nM	19.6%	–	–	–	–	–	–
CC(=O)N1CC[C@H](NC(=O)[C@@H](N)Cc2c(C)cc(O)cc2C)c2cc(Oc3ccccc3)ccc21 [Compound 1020]	598 ± 282 nM	60.4 ± 2.04%	787 nM	6.25 ± 1.39 nM	92.9 ± 15.1 nM	204 nM	16%	–	–	–	–	–	–
COc1cc(Cl)c(C[C@H](N)C(=O)N[C@@H]2CCNc3ccc(Cc4ccccc4)cc32)c(Cl)c1 [Compound 1021]	1390 ± 480 nM	34.8 ± 2.52%	1210 nM	38.1 ± 5.83 nM	2700 nM	–	–	–	–	–	–	–	–
Cc1cc(O)cc(C)c1C[C@H](N)C(=O)N[C@@H]1CCNc2ccc(C(c3ccccc3)c3ccccc3)cc21 [Compound 1022]	12.5 ± 8.76 nM	24.5 ± 0.29%	6.91 ± 0.21 nM	0.2 ± 0.02 nM	2.29 ± 0.36 nM	–	0%	–	–	–	–	–	–
Cc1cc(O)cc(C)c1C[C@H](N)C(=O)N[C@@H]1CCNc2cc(Cc3ccccc3)ccc21 [Compound 1023]	25.4 ± 22.2 nM	18.1 ± 4.92%	91.6 nM	0.78 ± 0.27 nM	25.8 ± 1.61 nM	–	–	dns	dns	–	–	–	–
Cc1cc(O)cc(C)c1C[C@H](N)C(=O)N[C@H]1CCNc2cc(Cc3ccccc3)ccc21 [Compound 1024]	–	–	1030 nM	21.1 ± 11.9 nM	295 ± 108 nM	–	–	dns	dns	dns	dns	–	–
Cc1cc(O)cc(C)c1C[C@H](N)C(=O)N[C@@H]1CCNc2ccc(Oc3ccc(Cl)cc3)cc21 [Compound 1025]	9.7 ± 1.32 nM	52.9 ± 4.46%	24.8 nM	0.1 ± 0.03 nM	12.1 ± 3.52 nM	0.3 nM	1.18 ± 1.18%	–	–	–	–	–	–
N[C@@H](Cc1ccc(Cl)cc1Cl)C(=O)N[C@@H]1CCNc2ccc(Cc3ccccc3)cc21 [Compound 1028]	–	13.8 ± 1.27%	–	50.6 ± 10.6 nM	2090 nM	–	0%	–	–	–	–	–	–
COc1ccccc1Oc1ccc2c(c1)[C@H](NC(=O)[C@@H](N)Cc1c(C)cc(O)cc1C)CCN2 [Compound 1029]	46.7 ± 4.12 nM	35.7 ± 2.58%	–	0.36 ± 0.04 nM	9.97 ± 0.71 nM	–	0%	–	–	–	–	–	–
Cc1cc(O)cc(C)c1C[C@H](N)C(=O)N[C@@H]1CCNc2ccc(Oc3cccc(Cl)c3)cc21 [Compound 1030]	10.1 ± 3.25 nM	27.2 ± 2.11%	–	0.08 ± 0.01 nM	2.59 nM	–	–	–	–	–	–	–	–
COc1ccccc1Oc1ccc2c(c1)[C@H](NC(=O)[C@@H](N)Cc1c(C)cc(O)cc1C)CCN2C(C)=O [Compound 1031]	39.7 ± 17 nM	30.5 ± 1.74%	–	0.27 ± 0.05 nM	2.7 nM	–	–	–	–	–	–	–	–
CCC(=O)N1CC[C@@H](NC(=O)[C@@H](N)Cc2c(C)cc(O)cc2C)c2cc(CC3Cc4ccccc4C3)ccc21 [Compound 1033]	3.61 ± 2.02 nM	52 ± 7.7%	–	0.06 ± 0.01 nM	0.3 ± 0.11 nM	–	–	dns	dns	–	–	–	–
COc1cccc2c1CC(Cc1ccc3c(c1)[C@H](NC(=O)[C@@H](N)Cc1c(C)cc(O)cc1C)CCN3)C2 (stereo partly drawn) [Compound 1035, (2S)-2-amino-3-(4-hydroxy-2,6-dimethylphenyl)-N-((4R)-6-((4-methoxy-2,3-dihydro-1H-inden-2-yl)methyl)-1,2,3,4-tetrahydroquinolin-4-yl)propanamide]	1.44 nM	32.9%	–	0.09 nM	4.13 ± 2.27 nM	–	–	dns	dns	–	–	–	–
COc1ccc2c(c1)CC(Cc1ccc3c(c1)[C@H](NC(=O)[C@@H](N)Cc1c(C)cc(O)cc1C)CCN3)C2 (some centres unmarked) [Compound 1037]	354 nM	10.9%	–	0.26 ± 0.15 nM	6.15 ± 2.09 nM	–	–	dns	dns	–	–	–	–
CC(=O)N1CC[C@@H](NC(=O)[C@@H](N)Cc2c(C)cc(O)cc2C)c2cccc(Cc3ccccc3)c21 [Compound 1040]	19 nM	8.03%	–	92.4 nM	6.19 nM	–	–	–	–	–	–	–	–
Cc1cc(O)cc(C)c1C[C@H](N)C(=O)N[C@@H]1CCNc2ccc(CN3CCNCC3)cc21 [Compound 1059]	90.5 ± 73.2 nM	–	11.7 ± 1.56 nM	16.6 ± 8.63 nM	1560 ± 288 nM	–	–	–	–	–	dns	–	–
Cc1cc(O)cc(C)c1C[C@H](N)C(=O)N[C@@H]1CCNc2ccc(CN3CCC4(CCCCC4)C3)cc21 [Compound 1105]	–	–	1.66 nM	1.14 nM	14.1 nM	–	–	–	–	–	–	–	–
Cc1cc(O)cc(C)c1C[C@H](N)C(=O)N[C@@H]1CCNc2ccc(CN3CCCC4(CCCCC4)CC3)cc21 [Compound 1106]	–	–	3.08 nM	0.54 nM	17 nM	–	–	–	–	–	–	–	–
CCCc1cc(Cc2ccccc2)cc2c1N(C(C)=O)CC[C@H]2NC(=O)[C@@H](N)Cc1c(C)cc(O)cc1C [Compound 1107]	–	–	32.7 nM	0.35 nM	1.95 nM	–	–	–	–	–	–	–	–
CC(=O)N1CC[C@@H](NC(=O)[C@@H](N)Cc2c(C)cc(O)cc2C)c2cc(Cc3ccccc3)cc(Br)c21 [Compound 1108]	–	–	33.3 nM	0.49 nM	1.35 nM	–	–	–	–	–	–	–	–
N[C@@H](Cc1c(Cl)cc(O)cc1Cl)C(=O)N[C@@H]1CCCc2ccc(Oc3ccccc3)cc21 [Compound 1119]	118 ± 76 nM	20.7 ± 2.91%	–	1.53 ± 0.64 nM	105 ± 10.5 nM	–	–	dns	dns	–	–	–	–
Cc1cc(O)cc(C)c1C[C@H](N)C(=O)N[C@@H]1CC[C@H](C)c2ccc(Cc3ccccc3)cc21 [Compound 1120]	16 ± 1.94 nM	72.3 ± 3.67%	–	0.08 ± 0.02 nM	5.85 ± 0.58 nM	–	–	dns	dns	–	–	–	–
Cc1cc(O)cc(C)c1C[C@H](N)C(=O)N[C@@H]1CC[C@@H](C)c2ccc(Cc3ccccc3)cc21 [Compound 1121]	–	–	–	0.32 ± 0.1 nM	15.8 ± 4.72 nM	109 ± 80.7 nM	14.3 ± 4.34%	–	–	dns	dns	–	–
Cc1cc(O)cc(C)c1C[C@H](N)C(=O)N[C@@H]1CCC(C)(C)c2ccc(Cc3ccccc3)cc21 [Compound 1122]	16 ± 4.74 nM	75.4 ± 4.06%	–	0.36 ± 0.08 nM	6.5 ± 0.66 nM	1090 ± 654 nM	16 ± 2.78%	–	–	–	–	2100 nM	77.8%
